Reference: ChEMBL document CHEMBL6078665, “Structural optimization of naturally derived Ar-turmerone, as novel neuroinflammation suppressors effective in an Alzheimer mouse model” (Bioorg Med Chem, 2025)
Calls of active or inactive are those of the source. No cut-off for these calls is given here.

Columns and labels:
BV-2 [1] = experiment: Anti-inflammatory activity against LPS-induced mouse BV-2 cells assessed as inhibition rate of LPS-induced NO production pretreated for 1 hr followed by challenged with LPS and measured after 24 hrs incubation by Griess assay; type: functional, cell-based
[2] = (§1) Cytotoxicity against LPS-induced mouse BV-2 cells assessed as cell survival at 80 uM measured after 24 hrs incubation by MTT assay; type: toxicity, cell-based; conditions: LPS-induced BV-2 cells, read-out: Survival
BV-2 [3] = experiment: Anti-inflammatory activity against LPS-induced mouse BV-2 cells assessed as inhibition rate of LPS-induced TNFalpha production pretreated for 1 hr followed by challenged with LPS and measured after 24 hrs incubation by ELISA assay; type: functional, cell-based
BV-2 [4] = experiment: Anti-inflammatory activity against LPS-induced mouse BV-2 cells assessed as inhibition rate of LPS-induced IL-1beta production pretreated for 1 hr followed by challenged with LPS and measured after 24 hrs incubation by ELISA assay; type: functional, cell-based
BV-2 [5] = experiment: Anti-inflammatory activity against LPS-induced mouse BV-2 cells assessed as inhibition rate of LPS-induced […] production at 80 uM pretreated for 1 hr followed by challenged with LPS and measured after 24 hrs incubation by Griess assay; type: functional; conditions: time 25 hrs
Mus musculus [6] = experiment: Anti-neuroinflammatory activity against LPS-induced C57BL/6 mouse model assessed as reversal of LPS-induced IL-1 beta increase in hippocampal homogenate at 100 mg/kg, po measured up to 5 days by ELISA kit; type: functional, organism-based; conditions: time <= 5.0 day
Mus musculus [7] = experiment: Anti-neuroinflammatory activity against LPS-induced neuronal damage C57BL/6 mouse model assessed as restoration of number of normal neuronal cells in hippocampus at 100 mg/kg, po measured up to 5 days by Nissl staining based assay; type: functional, organism-based; conditions: time <= 5.0 day
Mus musculus [8] = experiment: Anti-neuroinflammatory activity against LPS-induced neuronal damage C57BL/6 mouse model assessed as restoration of number of normal neuronal cells in cortex at 100 mg/kg, po measured up to 5 days by Nissl staining based assay; type: functional, organism-based; conditions: time <= 5.0 day
Mus musculus [9] = experiment: Anti-neuroinflammatory activity against LPS-induced C57BL/6 mouse model assessed as reversal of LPS-induced TNFalpha increase in hippocampal homogenate at 100 mg/kg, po measured up to 5 days by ELISA kit; type: functional, organism-based; conditions: time <= 5.0 day
Mus musculus [10] = experiment: Anti-neuroinflammatory activity against LPS-induced spatial learning in C57BL/6 mouse model assessed as swimming pathway at 100 mg/kg, po measured up to 5 days by Morris water maze test; type: functional, organism-based; conditions: time <= 5.0 day
Mus musculus [11] = experiment: Anti-neuroinflammatory activity against LPS-induced spatial learning loss in C57BL/6 mouse model assessed as shortening of escape latency at 100 mg/kg, po measured up to 5 days by Morris water maze test; type: functional, organism-based; conditions: time <= 5.0 day
Mus musculus [12] = experiment: Anti-neuroinflammatory activity against LPS-induced reference memory loss in C57BL/6 mouse model assessed as increase in time spent in target quadrant at 100 mg/kg, po measured up to 5 days by reference memory (probe trial) test; type: functional, organism-based; conditions: time <= 5.0 day
Mus musculus [13] = experiment: Anti-neuroinflammatory activity against LPS-induced reference memory loss in C57BL/6 mouse model assessed as increase in number of times cross the target quadrant at 100 mg/kg, po measured up to 5 days by reference memory (probe trial) test; type: functional, organism-based; conditions: time <= 5.0 day
BV-2 [14] = experiment: as §1; type: toxicity, cell-based; conditions: bv-2, 24 h, 80 µM
Mus musculus [15] = experiment: Anti-neuroinflammatory activity against LPS-induced C57BL/6 mouse model assessed as reversal of LPS-induced IL-1 beta increase in cortex at 100 mg/kg, po measured up to 5 days by ELISA kit; type: functional, organism-based; conditions: time <= 5.0 day
Mus musculus [16] = experiment: Anti-neuroinflammatory activity against LPS-induced C57BL/6 mouse model assessed as reversal of LPS-induced TNFalpha increase in cortex at 100 mg/kg, po measured up to 5 days by ELISA kit; type: functional, organism-based; conditions: time <= 5.0 day

Row | Compound | IC50 (BV-2 [1]) | viability at 24 h, 80 µM [2] | IC50 (BV-2 [3]) | IC50 (BV-2 [4]) | inhibition at 80 µM (BV-2 [5]) | other results
1 | CCCc1ccc(CNC(=O)C=C(C)C)cc1 | 49.4 µM | > 80% | 53.6 µM | 43.9 µM | 59.8% | 
2 | CCCC(OC(=O)C=C(C)C)c1ccc(-c2ccccc2)cc1 (centres undefined) |  | > 80% |  |  | 14.9% | 
3 | CC(C)=CC(=O)C[C@H](C)c1ccc(C)cc1 | 25.4 µM | > 80% | 39.9 µM | 18.5 µM |  | Activity (Mus musculus [6]): Active; Activity (Mus musculus [7]): Active; Activity (Mus musculus [8]): Active; Activity (Mus musculus [9]): Active
4 | CC(C)=CC(=O)OC(C)c1ccc(Cl)cc1 (centres undefined) |  | > 80% |  |  | 15.8% | 
5 | CC(C)=CC(=O)CC(c1ccc(C)cc1)C(C)C (centres undefined) | 30.9 µM | > 80% | 46.5 µM | 42.4 µM | 71% | 
6 | CC(C)=CC(=O)OC(C)c1ccc(-c2ccccc2)cc1 (centres undefined) |  | > 80% |  |  | 44.5% | 
7 | CC(C)=CC(=O)OC(C)c1ccccc1 (centres undefined) |  |  |  |  | 24.9% | 
8 | CC(C)=CC(=O)NC(c1ccccc1)c1ccc(C)cc1 (centres undefined) | 30.4 µM | > 80% | 50.3 µM | 54.1 µM | 71% | Activity (Mus musculus [6]): Active; Compound Exhibited Superior Effect Compared To Ar-Turmerone; Activity (Mus musculus [10]): Active; Activity (Mus musculus [11]): Active; Activity (Mus musculus [9]): Active; Compound Exhibited Superior Effect Compared To Ar-Turmerone
9 | CC(C)=CC(=O)OC(C)c1ccc2ccccc2c1 (centres undefined) |  | > 80% |  |  | 7.97% | 
10 | CC(C)=CC(=O)CC(C)c1ccccc1Cl (centres undefined) |  | > 80% |  |  | 47.7% | 
11 | CC(C)=CC(=O)CC(C)c1ccc(C(F)(F)F)cc1 (centres undefined) |  | > 80% |  |  | 26.8% | 
12 | CCCCc1nc(-c2ccc(OCCCN(CC)CC)cc2)cn1-c1ccc(Oc2ccc(Cl)cc2)cc1 |  |  |  |  |  | Activity (Mus musculus [12]): Active; Activity (Mus musculus [6]): Active; Activity (Mus musculus [9]): Active; Activity (Mus musculus [13]): Active
13 | CC(C)=CC(=O)CC(c1ccc(-c2ccccc2)cc1)C(C)C (centres undefined) | 26.6 µM |  | 51.4 µM | 56.2 µM | 69.7% | Activity (BV-2 [14]): Non-toxic
14 | CC(C)=CC(=O)NC(C)c1ccccc1 (centres undefined) |  |  |  |  | 22.3% | 
15 | CC(C)=CC(=O)NC(C)c1ccc(-c2ccccc2)cc1 (centres undefined) |  |  |  |  | 16.9% | Activity (BV-2 [14]): Non-toxic
16 | CC(C)=CC(=O)NC(C)c1ccc2ccccc2c1 (centres undefined) | 44.2 µM | > 80% | 24.5 µM | 32.5 µM | 60.1% | Activity (Mus musculus [12]): Active; Activity (Mus musculus [6]): Active; Activity (Mus musculus [15]): Active; Activity (Mus musculus [10]): Active; Activity (Mus musculus [11]): Active; Activity (Mus musculus [7]): Active; Compound Exhibited Superior Effect Compared To Ar-Turmerone And Ttp488; Activity (Mus musculus [8]): Active; Compound Exhibited Superior Effect Compared To Ar-Turmerone And Ttp488; Activity (Mus musculus [9]): Active; Activity (Mus musculus [16]): Active; Activity (Mus musculus [13]): Active
17 | CC(C)=CC(=O)NC(C)c1ccc(Cl)cc1 (centres undefined) |  | > 80% |  |  | 38% | 
18 | CC(C)=CC(=O)OC(C)c1ccc(C)cc1 (centres undefined) | 42.5 µM | > 80% | 28.5 µM | 34 µM | 64.5% | Activity (Mus musculus [6]): Active; Activity (Mus musculus [10]): Active; Activity (Mus musculus [11]): Active; Activity (Mus musculus [9]): Active
19 | CC(C)=CC(=O)CC(c1ccc(F)cc1)c1ccc(-c2ccccc2)cc1 (centres undefined) |  |  |  |  | 29.3% | Activity (BV-2 [14]): Non-toxic
20 | CC(C)=CC(=O)CC(c1ccc(F)cc1)c1ccc(C(F)(F)F)cc1 (centres undefined) |  | > 80% |  |  | 19.1% | 
21 | CC(C)=CC(=O)NC(C)c1ccc(C)cc1 (centres undefined) | 17.3 µM | > 80% | 27.5 µM | 14 µM | 79.8% | Activity (Mus musculus [6]): Active; Activity (Mus musculus [15]): Active; Activity (Mus musculus [10]): Active; Activity (Mus musculus [11]): Active; Activity (Mus musculus [9]): Active; Activity (Mus musculus [16]): Active
22 | CC(C)=CC(=O)CC(C)c1ccc(C)cc1 (racemic) | 30.2 µM | > 80% | 42.5 µM | 19.7 µM | 81.5% | 
23 | CC(C)=CC(=O)OC(C)c1ccc(C(F)(F)F)cc1 (centres undefined) |  | > 80% |  |  | 28.2% | 
24 | CC(C)=CC(=O)CC(c1ccc(C)cc1)c1ccc(F)cc1 (centres undefined) |  | > 80% |  |  | 8.15% | 
25 | CC(C)=CC(=O)CC(C)c1ccc(-c2ccccc2)cc1 (centres undefined) |  |  |  |  | 18.9% | Activity (BV-2 [14]): Non-toxic
26 | CC(C)=CC(=O)NC(C)c1ccc(C(F)(F)F)cc1 (centres undefined) |  | > 80% |  |  | 28% | 
27 | CC(C)=CC(=O)C[C@@H](C)c1ccc(C)cc1 | 29.1 µM |  | 40.9 µM | 23.1 µM |  | 
